Results on 3 compounds are retold here after patent US20040034022A1, “Polymorphic forms/hydrates of n-[4-(3-chloro-4-fluorophenylamino)-7-(3-morpholin-4-ylpropoxy)-quinazolin-6-yl]-acrylamide dihydrochloride” (priority 2000, published 2004).

This data set is described as follows: Temperature stress experiments: thermal stability of the solid forms, purity by HPLC. Format: physicochemical. The following applies: for HPLC Purity Start: solid form before temperature stress; for HPLC Purity: solid. The source says: Temperature Stress Experiments For the investigation of the thermal stability, the solid forms A, B and M are heated in open test tubes (l: 110 mm, d: 5 mm) or in test tubes closed by means of a glass stamp in an oil bath at temperatures and for a period of time as given in the Table. Subsequently, the purity of the remaining products is investigated by means of HPLC methods (column: LunaRP18 (25×0.46 cm); mobile phase: acetonitrile:methanol: 0.02M aq. ammonium acetate:triethylamine (55:5:40:0.05). (s): test tube with glass stamp

Each structure is given as a SMILES string. Structures can show the parent of a compound that is named as a salt.

With `C=CC(=O)Nc1cc2c(Nc3ccc(F)c(Cl)c3)ncnc2cc1OCCCN1CCOCC1` [Form A, N-[4-(3-chloro-4-fluorophenylamino)-7-(3-morpholin-4-ylpropoxy)-quinazolin-6-yl]-acrylamide Dihydrochloride Form A], under “listed as A”, the “HPLC Purity Start” value stood at 99.28 rel %. For the same compound, the “HPLC Purity” value is 23.45 (s) rel % (16 hr, 100° C., then 8 hr, 150° C., (s): test tube with glass stamp, listed as A); 25.28 rel % (16 hr, 100° C., then 8 hr, 150° C., open test tube, listed as A); 99.02 (s) rel % (7 d, 80° C., (s): test tube with glass stamp, listed as A); 97.51 rel % (7 d, 80° C., open test tube, listed as A).
Regarding `C=CC(=O)Nc1cc2c(Nc3ccc(F)c(Cl)c3)ncnc2cc1OCCCN1CCOCC1` [Form B, N-[4-(3-chloro-4-fluorophenylamino)-7-(3-morpholin-4-ylpropoxy)-quinazolin-6-yl]-acrylamide Dihydrochloride Form B], the “HPLC Purity Start” value (listed as B) came to 99.77 rel %. For the same compound, the “HPLC Purity” value reads like this: (16 hr, 100° C., then 8 hr, 150° C., (s): test tube with glass stamp, listed as B) 75.28 (s) rel %; (16 hr, 100° C., then 8 hr, 150° C., open test tube, listed as B) 75.32 rel %; (7 d, 80° C., (s): test tube with glass stamp, listed as B) 84.40 (s) rel %; (7 d, 80° C., open test tube, listed as B) 89.39 rel %.
On to `C=CC(=O)Nc1cc2c(Nc3ccc(F)c(Cl)c3)ncnc2cc1OCCCN1CCOCC1` [Form M, N-[4-(3-chloro-4-fluorophenylamino)-7-(3-morpholin-4-ylpropoxy)-quinazolin-6-yl]-acrylamide Dihydrochloride Form M], for which the “stability towards the heating of the solid substance” value (heating at 80° C. or 150° C., in comparison to the forms A or B) is on record as “more stable form”. For the same compound, the “HPLC Purity Start” value (listed as M) is recorded as 99.49 rel %. The “HPLC Purity” value reads like this: (16 hr, 100° C., then 8 hr, 150° C., (s): test tube with glass stamp, listed as M) 99.43 (s) rel %; (16 hr, 100° C., then 8 hr, 150° C., open test tube, listed as M) 99.43 rel %; (8 d, 80° C., (s): test tube with glass stamp) 99.61 (s) rel %; (8 d, 80° C., open test tube) 99.62 rel %.
